Experimental data as given in paper PMC13252604, “First Generation Proteolysis Targeting Chimeras (PROTACs) for the Treatment of Progeria” (Advanced Science, 2026).

Target: T1, progerin (Homo sapiens, UniProt P02545)
T1 construct: endogenous in cells; host or cells: HGADFN167 human HGPS fibroblasts (Progeria Research Foundation)
T1 sequence (P02545 1-614 isoform P02545-6): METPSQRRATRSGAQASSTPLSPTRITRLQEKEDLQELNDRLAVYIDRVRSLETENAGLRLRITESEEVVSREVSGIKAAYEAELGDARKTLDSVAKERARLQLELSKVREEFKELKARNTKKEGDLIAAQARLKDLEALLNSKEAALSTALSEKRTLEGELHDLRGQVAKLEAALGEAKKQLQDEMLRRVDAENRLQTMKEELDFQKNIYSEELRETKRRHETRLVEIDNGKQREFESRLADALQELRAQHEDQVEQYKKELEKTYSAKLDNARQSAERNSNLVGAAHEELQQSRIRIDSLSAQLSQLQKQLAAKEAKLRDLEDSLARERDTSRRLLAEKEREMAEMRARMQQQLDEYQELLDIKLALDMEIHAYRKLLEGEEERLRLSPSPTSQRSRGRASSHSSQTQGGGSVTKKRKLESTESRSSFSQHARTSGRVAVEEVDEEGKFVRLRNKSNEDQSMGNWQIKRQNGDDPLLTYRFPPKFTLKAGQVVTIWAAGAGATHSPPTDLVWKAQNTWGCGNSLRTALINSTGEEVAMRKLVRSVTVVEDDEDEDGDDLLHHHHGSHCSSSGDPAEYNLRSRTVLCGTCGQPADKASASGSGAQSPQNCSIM
Assay: Progerin quantification, immunoblot in human Lmna^G608G/G608G fibroblasts
Assay type: cell-based
Conditions: human Lmna^G608G/G608G patient-derived fibroblasts, vs vehicle
Source text: FIGURE 6 (A) Representative cropped immunoblots and progerin quantification in human Lmna^G608G/G608G fibroblasts. MW, molecular weight (in kDa) markers. […] (B) PROTAC 2 increases cell proliferation (upper panels) and decreases the number of misshapen nuclei (lower panels). White arrows highlight selected misshapen nuclei. (C) PROTAC 2 decreases senescence‐associated β‐galactosidase (SA‐βgal) activity, interleukin (IL) 6, p16 and p21 senescent markers. Bar graphs show mean±sem of 2 (SA‐βgal and p21) or 3 (IL‐6 and p16) independent experiments performed in triplicate. (D) PROTAC 2 decreases phosphorylated histone 2AX (pH2AX) and increases trimethylated histone 3 (H3K9Me3) levels. (E) PROTAC 2 increases the oxygen consumption rate (OCR), ATP production and the number of healthy mitochondria in human progeroid cells. […] Data were analysed using one‐way ANOVA followed by Dunnett's post–hoc test vs vehicle (panel A) or vs G608G cells (panels B‐E). ^*, p < 0.05; ^**, p < 0.01; ^***, p < 0.001; ^****, p < 0.0001. […]
was saturated at 100 ppm. Relative STD effects were calculated by comparing the intensity of the signals in the STD-NMR spectrum with signal intensities of the reference spectrum (off-resonance). The STD signal with the highest intensity was set to 100%, a nd other STD signals were calculated accordingly. […]
Cell viability was assessed as previously described.[64] […]

CC1(C)Oc2cc3oc(=O)ccc3cc2C[C@@H]1OC(=O)CCCCC(=O)Oc1ccc2c(c1)CCCN2C(=O)CCl [compound 12]
progerin levels (immunoblot quantification): exhibited significant activity in human cells

CC1(C)Oc2cc3oc(=O)ccc3cc2C[C@@H]1OC(=O)CCCCCNc1cccc2c1C(=O)N(C1CCC(=O)NC1=O)C2=O (some centres unmarked) [compound 2]
progerin levels (immunoblot quantification): the most potent in human cells
